Test results: patent US20220143198A1, “COMPOSITIONS AND METHODS RELATED TO TETHERED KETHOXAL DERIVATIVES” (The University of Chicago, priority 2019, published 2022)

How the values were obtained:
guanosine [1] = experiment: Reversibility of kethoxal derivatives using GTP for competition (LCMS of free guanosine); format: physicochemical; details: 1:1 ratio
guanosine [2] = experiment: Reactivity of kethoxal derivatives with guanosine (conversion rates of guanosine); format: biochemical
[3] = pH = 7.0, 10 min, excess GTP added after 10 min
[4] = pH = 7.0, 2 h, excess GTP competitor
[5] = pH = 7.8, S1:S2 = 2:1 (S1 guanosine, S2 kethoxal derivative)

SMILES | Conversion rate of guanosine (guanosine [2]; pH = 7.8, S1:S2 = 1:1) [%] | Conversion rate of guanosine (guanosine [2]; pH = 7.8, S1:S2 = 1:2) [%] | Conversion rate of guanosine (guanosine [2]; [5]) [%] | Conversion rate of guanosine (guanosine [2]; pH = 7.8, S1:S2 = 1:3) [%] | Conversion rate of guanosine (guanosine [2]; pH = 7.0, S1:S2 = 1:1) [%] | Conversion rate of guanosine (guanosine [2]; pH = 7.0, S1:S2 = 1:2) [%] | Conversion rate of guanosine (guanosine [2]; pH = 7.0, S1:S2 = 2:1) [%] | other results
CCN(CC)C(C)C(=O)C=O (centres unmarked) | – | – | – | – | – | – | – | Conversion of guanosine under competition condition (guanosine [1]; [3]): 66.9%; Conversion of guanosine under competition condition (guanosine [1]; [4]): 66.1%; Conversion of guanosine under competition condition (guanosine [1]; pH = 7.0, 24 h, excess GTP competitor): 36.3%
O=CC(=O)c1ccc([N+](=O)[O-])cc1 | – | – | – | – | – | – | – | Conversion of guanosine under competition condition (guanosine [1]; [3]): 48.0%; Conversion of guanosine under competition condition (guanosine [1]; [4]): 13.5%
CC(OCCN=[N+]=[N-])C(=O)C=O (centres unmarked) [drawing 31] | 86.9 | 97.4 | 51.6 | – | – | – | – | –
CC(C)(OCCN=[N+]=[N-])C(=O)C=O [drawing 32] | 81.6 | 97.4 | 51.3 | – | – | – | – | –
[N-]=[N+]=NCCOCC(=O)C=O [drawing 33] | 78.6 | 95.4 | 51.3 | – | – | – | – | –
CC(OC(=O)CN=[N+]=[N-])C(=O)C=O (centres unmarked) [drawing 34] | 77.5 | 92.1 | 43.6 | – | – | – | – | –
CC(N=[N+]=[N-])C(=O)C=O (centres unmarked) [drawing 35] | 71.2 | 90.3 | 38.0 | 96.5 | – | – | – | –
CC(Br)C(=O)C=O (centres unmarked) [drawing 36] | 67.2 | 89.9 | 35.8 | 92.2 | – | – | – | –
[N-]=[N+]=NCCCC(=O)C=O [drawing 39] | 48.0 | 70.5 | 23.8 | 88.9 | – | – | – | Conversion rate of guanosine (guanosine [2]; pH = 7.8, S1:S2 = 1:5): 89.2%
CC(C(=O)C=O)N(C)C(=O)CN=[N+]=[N-] (centres unmarked) [drawing 40] | 40.2 | 66.7 | – | 74.9 | – | – | – | Conversion rate of guanosine (guanosine [2]; pH = 7.8, S1:S2 = 1:5): 83.2%
[N-]=[N+]=NCCOCCC(=O)C=O [drawing 41] | 41.1 | 60.0 | 25.2 | 66.4 | – | – | – | Conversion rate of guanosine (guanosine [2]; pH = 7.8, S1:S2 = 1:5): 73.6%
[N-]=[N+]=NCCOC(F)C(=O)C=O (centres unmarked) [drawing 43] | 30.9 | 49.6 | – | 69.5 | – | – | – | Conversion rate of guanosine (guanosine [2]; pH = 7.8, S1:S2 = 1:5): 76.7%; Conversion rate of guanosine (guanosine [2]; pH = 7.8, S1:S2 = 1:10): 81.6%
[N-]=[N+]=NCCOC(F)(F)C(=O)C=O [drawing 44] | 14.7 | 28.9 | 8.5 | 38.7 | – | – | – | Conversion rate of guanosine (guanosine [2]; pH = 7.8, S1:S2 = 1:5): 63.1%
CC(OCCN=[N+]=[N-])C(=O)C=O (centres unmarked) [drawing 46] | – | – | – | – | 70.6 | 93.7 | 39.6 | –
CC(C)(OCCN=[N+]=[N-])C(=O)C=O [drawing 47] | – | – | – | – | 46.7 | 76.6 | 23.6 | –
[N-]=[N+]=NCCOCC(=O)C=O [drawing 48] | – | – | – | – | 52.2 | 79.2 | 30.3 | –
CC(OC(=O)CN=[N+]=[N-])C(=O)C=O (centres unmarked) [drawing 49] | – | – | – | – | 50.1 | 81.3 | 29.5 | –
CC(N=[N+]=[N-])C(=O)C=O (centres unmarked) [drawing 50] | – | – | – | – | 46.7 | 79.2 | 22.0 | Conversion rate of guanosine (guanosine [2]; pH = 7.0, S1:S2 = 1:4): 95.3%
CC(Br)C(=O)C=O (centres unmarked) [drawing 51] | – | – | – | – | 40.4 | 81.2 | 22.4 | –
[N-]=[N+]=NCCCC(=O)C=O [drawing 54] | – | – | – | – | 40.8 | 63.2 | 19.8 | Conversion rate of guanosine (guanosine [2]; pH = 7.0, S1:S2 = 1:4): 87.2%
CC(C(=O)C=O)N(C)C(=O)CN=[N+]=[N-] (centres unmarked) [drawing 55] | – | – | – | – | 46.2 | 64.2 | 20.4 | Conversion rate of guanosine (guanosine [2]; pH = 7.0, S1:S2 = 1:4): 84.7%
[N-]=[N+]=NCCOCCC(=O)C=O [drawing 56] | – | – | – | – | 38.3 | 49.6 | 16.8 | –
O=CC(=O)c1ccccc1 [drawing 57] | – | – | – | – | 22.5 | 33.2 | 9.9 | Conversion rate of guanosine (guanosine [2]; pH = 7.0, S1:S2 = 1:4): 51.5%
